Laboratory results: US8153821B2, “Compounds” (priority 2008, dated 2012)

Experiments:
[1] = target: T1, human recombinant α4β2 nicotinic receptors (Homo sapiens, UniProt P17787+P43681); assay: Radioligand binding, human recombinant α4β2 in SH-EP1 cellular membranes
T1 construct: expressed in transfected cells; host or cells: SH-EP1
Procedure: Preparation of membranes from SH-EP1/human α4β2 clonal cells: Cell pellets from 40 150 mm culture dishes were pooled, and homogenized by Polytron (Kinematica GmbH, Switzerland) in 20 milliliters of ice-cold preparative buffer. […] The resulting pellet was re-suspended in 20 mL of ice-cold preparative buffer and stored at −20° C.
Assay. On the day of the assay, the frozen membranes were thawed and spun at 48,000×g for 20 min. The supernatant was decanted and discarded. The pellet was resuspended in Dulbecco's phosphate buffered saline (PBS, Life Technologies) pH 7.4 and homogenized with the Polytron for 6 seconds. Protein concentrations were determined using a Pierce BCA Protein Assay Kit, with bovine serum albumin as the standard (Pierce Chemical Company, Rockford, Ill.).
Incubation was terminated by rapid filtration on a multi-manifold tissue harvester (Brandel, Gaithersburg, Md.) using GF/B filters presoaked in 0.33% polyethyleneimine (w/v) to reduce non-specific binding. Tissue was rinsed 3 times in PBS, pH 7.4. […] Filters were then counted to determine radioactivity bound to the membranes by liquid scintillation counting (2200CA Tri-Carb LSC, Packard Instruments, 50% efficiency or Wallac Trilux 1450 MicroBeta, 40% efficiency, Perkin Elmer).
Data were expressed as disintegrations per minute (DPMs). […]

[2] = target: T2, human native ganglion-type nicotinic receptors (likely α3β4) (Homo sapiens, UniProt P30926+P32297); assay: [3H]epibatidine binding, SH-SY5Y membranes
T2 construct: human native ganglion-type nicotinic receptors (likely α3β4); endogenous in cells; host or cells: SH-SY5Y

[3] = target: T3, human native muscle-type nicotinic receptors (likely α1β1γδ) (Homo sapiens, UniProt P02708+P07510+Q07001); assay: [3H]epibatidine binding, TE-671 membranes
T3 construct: human native muscle-type nicotinic receptors (likely α1β1γδ); endogenous in cells; host or cells: TE-671 (TE671/RD)

[4] = target: T4, human native ganglion receptors (Homo sapiens, UniProt P30926+P32297); assay: Ca flux assay, SH-SY5Y cells; type: cell-based
T4 construct: human native ganglion-type nicotinic receptors (likely α3β4); endogenous in cells; host or cells: SH-SY5Y
Procedure: The cell line SH-SY5Y is a continuous line derived by sequential subcloning of the parental cell line, SK-N-SH, which was originally obtained from a human peripheral neuroblastoma. SH-SY5Y cells express a ganglion-like nAChR (Lukas et al., Mol. Cell. Neurosci. 4: 1 (1993)).
(R)-3-((E)-2-(Pyrrolidin-3-yl)vinyl)-5-(tetrahydropyran-4-yloxy)pyridine or a salt thereof was tested in ganglion and muscle-type nicotinic receptor ion flux assays to examine functional selectivity.

[5] = tested on: neuronal nicotinic receptors (α-BnTx insensitive); assay: Multiple receptor screening assay, nicotinic receptor; type: binding; conditions: single concentration of 10 μM
Procedure: (R)-3-((E)-2-(Pyrrolidin-3-yl)vinyl)-5-(tetrahydropyran-4-yloxy)pyridine or a salt thereof was tested for selectivity against a panel of 65 receptors.

normal rats = assay: Novel object recognition (NOR); type: in vivo, rat; conditions: for NOR duration of statistically significant effect after dosing: dose 0.004 μM/kg (0.004 μmol/kg oral), FIG. 2
Procedure: Memory was assessed by using a three-trial novel object recognition test (Luine et al., Pharm. Biochem. Behav. 74, 213-220 (2002)). On the first day (exploratory trial), rats were allowed to explore an open arena (44.5×44.5×30.5 cm) for 6 min. On the second day (acquisition trial), rats were allowed to explore the same arena in the presence of two identical objects (both object A) for 3 min. On the third day (retention or recall trial), performance was evaluated by allowing the same animal to re-explore the arena for 3 min in the presence of two different objects: the familiar object A and a novel object B. An inter-trial interval of 24 h was imposed between the three NOR trials. Recognition memory was assessed by comparing the time spent exploring a novel (object B) versus a familiar (object A) object during the recall trial. Recognition index was assessed for each animal and expressed as a ratio ((time B/time A+time B)×100).
(R)-3-((E)-2-(Pyrrolidin-3-yl)vinyl)-5-(tetrahydropyran-4-yloxy)pyridine or a salt thereof improved long-term visual episodic/declarative memory as assessed by novel object recognition (NOR) task following oral dosing in normal rats. […] In the two “recall only” sessions; subset of animals were orally dosed with water on day 1 (i.e., exploratory session) and day 2 (i.e., acquisition session) and then orally dosed either with 1.1 μmol/kg (R)-3-((E)-2-(pyrrolidin-3-yl)vinyl)-5-(tetrahydropyran-4-yloxy)pyridine or a salt thereof (left panel) or 0.04 μmol/kg (right panel) on day 3 (i.e., recall session). […] In the Figure, the dashed line at 65% denotes subjective criteria for biological cognitive enhancing activity. *P<0.05.
(R)-3-((E)-2-(Pyrrolidin-3-yl)vinyl)-5-(tetrahydropyran-4-yloxy)pyridine or a salt thereof was evaluated for its duration of effect in the NOR task in normal rats. […] In the Figure, the dashed line at 65% denotes subjective criteria for biological cognitive enhancing activity (*P<0.05).

CYP2D6 = CYP2D6 (Homo sapiens, UniProt P10635); type: in vitro ADME
[6] = type: in vitro ADME; conditions: human
Source text: (§1) Therefore any variation of (R)-3-((E)-2-(pyrrolidin-3-yl)vinyl)-5-(tetrahydropyran-4-yloxy)pyridine or a salt thereof metabolism in human due to CYP polymorphism is expected to be less than 2 fold due to the significant renal clearance and low hepatic clearance.

CYP2D6 and FMO3 = type: in vitro ADME; conditions: human
Source text: as §1

T4 sequence (P32297 32-505): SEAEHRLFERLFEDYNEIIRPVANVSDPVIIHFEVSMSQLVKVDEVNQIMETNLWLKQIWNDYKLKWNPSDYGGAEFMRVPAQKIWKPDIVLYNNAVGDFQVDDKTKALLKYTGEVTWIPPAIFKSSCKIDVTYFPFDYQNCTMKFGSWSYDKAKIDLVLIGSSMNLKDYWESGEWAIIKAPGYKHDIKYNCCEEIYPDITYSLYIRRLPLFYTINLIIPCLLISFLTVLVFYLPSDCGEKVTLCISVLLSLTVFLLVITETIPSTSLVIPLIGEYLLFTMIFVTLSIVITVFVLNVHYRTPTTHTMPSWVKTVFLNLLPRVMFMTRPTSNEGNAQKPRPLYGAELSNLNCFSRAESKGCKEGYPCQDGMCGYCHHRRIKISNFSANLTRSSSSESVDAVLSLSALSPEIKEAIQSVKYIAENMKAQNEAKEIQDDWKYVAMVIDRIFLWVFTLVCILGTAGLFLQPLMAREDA
T4 sequence (P30926 22-498): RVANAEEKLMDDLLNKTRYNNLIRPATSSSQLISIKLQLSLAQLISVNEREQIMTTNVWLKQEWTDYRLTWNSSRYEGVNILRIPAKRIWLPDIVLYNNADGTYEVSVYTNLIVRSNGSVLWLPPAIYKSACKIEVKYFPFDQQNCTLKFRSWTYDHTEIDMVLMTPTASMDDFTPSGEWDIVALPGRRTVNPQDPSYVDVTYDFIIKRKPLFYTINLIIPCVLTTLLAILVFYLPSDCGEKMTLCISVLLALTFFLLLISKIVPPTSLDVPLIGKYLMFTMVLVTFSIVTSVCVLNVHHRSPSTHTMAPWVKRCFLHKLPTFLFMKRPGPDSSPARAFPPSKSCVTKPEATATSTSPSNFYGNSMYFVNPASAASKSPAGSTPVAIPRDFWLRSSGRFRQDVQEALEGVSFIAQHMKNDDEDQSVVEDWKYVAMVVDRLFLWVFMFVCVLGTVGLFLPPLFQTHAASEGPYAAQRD
T3 sequence (P07510 23-517): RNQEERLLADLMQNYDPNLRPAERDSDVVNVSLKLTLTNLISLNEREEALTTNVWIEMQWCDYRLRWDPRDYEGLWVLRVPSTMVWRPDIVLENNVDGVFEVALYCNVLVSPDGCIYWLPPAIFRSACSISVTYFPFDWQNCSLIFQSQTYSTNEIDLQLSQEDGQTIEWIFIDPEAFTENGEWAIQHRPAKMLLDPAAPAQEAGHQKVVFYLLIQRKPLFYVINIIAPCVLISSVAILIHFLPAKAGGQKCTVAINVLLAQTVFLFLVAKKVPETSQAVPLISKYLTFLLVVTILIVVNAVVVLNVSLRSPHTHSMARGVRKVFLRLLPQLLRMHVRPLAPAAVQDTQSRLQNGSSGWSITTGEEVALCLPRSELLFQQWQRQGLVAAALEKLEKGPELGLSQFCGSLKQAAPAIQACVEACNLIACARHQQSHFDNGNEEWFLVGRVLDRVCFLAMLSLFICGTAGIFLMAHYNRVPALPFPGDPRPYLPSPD
T3 sequence (Q07001 22-517): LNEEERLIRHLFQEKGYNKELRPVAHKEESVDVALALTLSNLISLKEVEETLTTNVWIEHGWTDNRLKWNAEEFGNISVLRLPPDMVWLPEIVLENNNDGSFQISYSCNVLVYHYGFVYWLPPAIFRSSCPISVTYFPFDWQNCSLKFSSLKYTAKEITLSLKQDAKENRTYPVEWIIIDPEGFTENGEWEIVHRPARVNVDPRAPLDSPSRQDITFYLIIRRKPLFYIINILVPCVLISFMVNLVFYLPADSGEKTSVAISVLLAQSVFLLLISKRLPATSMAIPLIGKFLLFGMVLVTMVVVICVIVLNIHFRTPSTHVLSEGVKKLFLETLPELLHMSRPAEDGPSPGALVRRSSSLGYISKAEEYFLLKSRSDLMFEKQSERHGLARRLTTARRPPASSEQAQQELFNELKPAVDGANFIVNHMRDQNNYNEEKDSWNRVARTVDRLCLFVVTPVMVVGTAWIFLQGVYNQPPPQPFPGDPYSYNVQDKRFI
T3 sequence (P02708 21-457): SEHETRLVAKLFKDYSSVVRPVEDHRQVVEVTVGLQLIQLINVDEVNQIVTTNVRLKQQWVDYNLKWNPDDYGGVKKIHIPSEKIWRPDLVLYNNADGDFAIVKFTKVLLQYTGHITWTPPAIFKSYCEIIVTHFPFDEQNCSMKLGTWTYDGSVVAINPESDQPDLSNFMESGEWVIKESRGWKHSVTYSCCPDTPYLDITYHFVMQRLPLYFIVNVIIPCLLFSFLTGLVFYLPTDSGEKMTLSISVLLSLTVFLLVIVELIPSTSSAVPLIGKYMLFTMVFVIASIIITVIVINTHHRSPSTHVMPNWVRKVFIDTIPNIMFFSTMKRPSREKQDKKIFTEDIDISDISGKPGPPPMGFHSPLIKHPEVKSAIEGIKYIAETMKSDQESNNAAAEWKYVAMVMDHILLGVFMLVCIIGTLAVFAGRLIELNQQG
T3 sequence (P11230 24-501, further chain): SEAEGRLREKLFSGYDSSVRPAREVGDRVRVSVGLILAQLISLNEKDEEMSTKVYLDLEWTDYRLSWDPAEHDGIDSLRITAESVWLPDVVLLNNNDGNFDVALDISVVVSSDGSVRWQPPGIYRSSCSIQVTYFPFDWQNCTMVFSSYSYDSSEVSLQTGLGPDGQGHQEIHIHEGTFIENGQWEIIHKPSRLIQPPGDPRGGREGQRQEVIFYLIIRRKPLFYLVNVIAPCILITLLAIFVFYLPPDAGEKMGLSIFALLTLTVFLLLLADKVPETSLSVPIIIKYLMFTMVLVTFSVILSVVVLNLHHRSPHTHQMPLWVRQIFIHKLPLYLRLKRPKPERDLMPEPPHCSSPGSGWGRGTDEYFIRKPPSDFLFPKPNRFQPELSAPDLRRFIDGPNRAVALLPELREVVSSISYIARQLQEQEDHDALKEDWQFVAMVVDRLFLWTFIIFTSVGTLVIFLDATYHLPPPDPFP
T2 sequence (P30926 22-498): as the sequence (P30926 22-498) above
T2 sequence (P32297 32-505): as the sequence (P32297 32-505) above
T1 sequence (P43681 29-627 limits assumed): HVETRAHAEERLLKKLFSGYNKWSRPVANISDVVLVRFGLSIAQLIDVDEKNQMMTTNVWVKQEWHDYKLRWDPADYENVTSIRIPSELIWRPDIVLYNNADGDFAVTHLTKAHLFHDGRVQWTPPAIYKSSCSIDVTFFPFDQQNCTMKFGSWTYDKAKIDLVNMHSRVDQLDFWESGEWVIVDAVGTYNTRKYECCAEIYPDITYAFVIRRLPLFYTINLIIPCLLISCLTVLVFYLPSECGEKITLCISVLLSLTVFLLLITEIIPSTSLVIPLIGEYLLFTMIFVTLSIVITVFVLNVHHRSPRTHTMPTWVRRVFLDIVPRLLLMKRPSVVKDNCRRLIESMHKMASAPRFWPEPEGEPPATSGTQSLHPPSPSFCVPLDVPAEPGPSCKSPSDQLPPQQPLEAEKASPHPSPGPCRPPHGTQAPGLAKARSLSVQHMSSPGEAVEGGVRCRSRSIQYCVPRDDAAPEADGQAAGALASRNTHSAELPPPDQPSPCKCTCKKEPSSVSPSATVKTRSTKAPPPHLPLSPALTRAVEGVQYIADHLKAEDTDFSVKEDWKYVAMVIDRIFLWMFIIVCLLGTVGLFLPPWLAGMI
T1 sequence (P17787 26-502): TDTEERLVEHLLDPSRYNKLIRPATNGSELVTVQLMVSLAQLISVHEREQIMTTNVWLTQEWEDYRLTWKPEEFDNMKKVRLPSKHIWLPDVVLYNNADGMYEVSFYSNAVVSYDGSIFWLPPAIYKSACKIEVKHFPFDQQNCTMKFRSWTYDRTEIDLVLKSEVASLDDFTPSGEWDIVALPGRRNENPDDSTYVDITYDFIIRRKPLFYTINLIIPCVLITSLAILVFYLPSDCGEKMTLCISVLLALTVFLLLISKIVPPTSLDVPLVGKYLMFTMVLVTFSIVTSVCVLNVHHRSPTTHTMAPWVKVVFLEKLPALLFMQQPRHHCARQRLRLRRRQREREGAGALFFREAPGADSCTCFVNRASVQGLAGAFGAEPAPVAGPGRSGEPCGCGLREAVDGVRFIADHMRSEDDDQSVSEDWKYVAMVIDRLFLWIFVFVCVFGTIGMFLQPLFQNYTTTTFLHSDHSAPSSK
Sequence of CYP2D6 (P10635 whole entry): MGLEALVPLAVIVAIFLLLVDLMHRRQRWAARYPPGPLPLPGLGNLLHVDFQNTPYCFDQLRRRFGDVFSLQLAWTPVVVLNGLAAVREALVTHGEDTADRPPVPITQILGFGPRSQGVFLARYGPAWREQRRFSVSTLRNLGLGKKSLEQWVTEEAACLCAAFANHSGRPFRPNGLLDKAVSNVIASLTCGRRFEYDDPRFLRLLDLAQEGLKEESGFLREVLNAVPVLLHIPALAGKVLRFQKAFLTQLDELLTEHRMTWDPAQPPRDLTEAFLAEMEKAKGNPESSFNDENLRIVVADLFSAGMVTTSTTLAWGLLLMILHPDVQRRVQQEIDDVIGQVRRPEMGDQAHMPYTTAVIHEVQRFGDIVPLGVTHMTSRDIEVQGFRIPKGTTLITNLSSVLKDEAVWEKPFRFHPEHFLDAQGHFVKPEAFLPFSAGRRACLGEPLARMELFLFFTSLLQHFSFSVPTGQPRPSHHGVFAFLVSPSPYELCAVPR

C(=C\[C@H]1CCNC1)/c1cncc(OC2CCOCC2)c1 [Compound A, (R)-3-((E)-2-(pyrrolidin-3-yl)vinyl)-5-(tetrahydropyran-4-yloxy)pyridine]
Ki [1]: 0.002 µM
Ki [2]: 3.4 µM
Ki [3]: 25 µM
EC50 [4]: 11 µM
Human ganglionic (SH-SY5Y) Emax (Ca flux) ([4]; SH-SY5Y cells): μM, 13%
Emax ([4]; SH-SY5Y cells, read-out: Human ganglionic (SH-SY5Y) Emax (Ca flux)): 13%
inhibition of binding of labelled ligand [5]: 99%
NOR recognition index (normal rats; 0.004 μmol/kg oral, 0.5 h after dosing): 72±2%
NOR recognition index (normal rats; 0.004 μmol/kg oral, 6 h after dosing): 70±3%
NOR recognition index (normal rats; 0.004 μmol/kg oral, 8 h after dosing): 70±4%
NOR recognition index (normal rats; 0.04 μmol/kg oral, normal rats, 24 h after acquisition trial): 71±2%
NOR recognition index (normal rats; 1.1 μmol/kg oral, normal rats, 24 h after acquisition trial): 61±3%
NOR lowest dose with statistically significant effect (normal rats; FIG. 1): ≥ 0.004 µM/kg
NOR duration of statistically significant effect after dosing (normal rats): ≤ 8 h
NOR duration of statistically significant effect after dosing (normal rats; listed as (R)-3-((E)-2-(pyrrolidin-3-yl)vinyl)-5-(tetrahydropyran-4-yloxy)pyridine): up to 8 h
NOR duration of statistically significant effect after dosing (normal rats; listed as Formula I): ≤ 8 h
NOR minimum effect dose (MED) (normal rats; oral, follow-up NOR study, rats): 0.004 µmol/kg
NOR recognition index, recall only sessions (normal rats; single oral administration on day 3, 1.1 μmol/kg or 0.04 μmol/kg): significantly above controls
time-dependent inhibition of CYP2D6 (CYP2D6): no evidence of time-dependent inhibition
hepatic turnover rate [6]: low hepatic turnover rate
enzymes contributing to metabolism (CYP2D6 and FMO3): both CYP2D6 and FMO3 contributed to the metabolism
